According to patent publication US20230416247A1, “DRUG-LIKE MOLECULES AND METHODS FOR THE THERAPEUTIC TARGETING OF MICRORNA-21” (University of Washington, priority 2020, published 2023):
Entries after “also recorded” stand apart in the source; their conditions may differ.

Assays:
[1] = tested on: pre-miR-21 processing by Dicer-TRBP; assay: Dicer/TRBP in vitro processing of pre-miR-21; type: biochemical, human; details: for inhibition of Dicer processing: pre-miR-21 compared with pre-Let7
Procedure: In order to further assess the biochemical activity of our compounds, processing of pre-miR-21 and pre-Let7 by Dicer-TRBP in vitro was compared. FIGS. 9A and 9B show selective response in the rate of processing under early phase reaction conditions, before significant product builds up, for pre-miR21 compared to pre-Let7.
The results are specific to the initial rates (0.25-5 min) of the reaction. […] This is inevitable because Dicer binds the product tightly. This assay and method of inhibiting miR-21 synthesis is different than typical enzymatic assays. First, the small molecule is targeting the substrate of the enzymatic assay. High affinity compounds that change the structure of the substrate may reduce processing but might not inhibit processing completely. Rather, changes in the specificity constant (kcat/Km), are a better measure of small molecule inhibition than traditional Ki's.
Dicer/TRBP. The Dicer/TRBP enzyme complex was expressed and purified using published methods and stored at −80° C. in 20 μL aliquots until needed. Briefly, the gene encoding human full-length Dicer was inserted into a modified pFastBac1 vector (Invitrogen), which has an N-terminal glutathione-S-transferase (GST) tag. The GST fusion proteins were expressed in HiFive insect cells following standard procedures and isolated by glutathione affinity chromatography using buffer A (20 mM Tris-HCl pH 8.0, 150 mM NaCl, 2 mM DTT). After on-column cleavage by Tobacco Etch Virus (TEV) protease overnight, the proteins were eluted, concentrated and loaded onto Superdex 200 GL column equilibrated in buffer A. Sequences coding for human full-length TRBP2 were cloned into a modified pET28a vector with an N-terminal GB1 tag. The clones were transformed into Rosetta 2 cells and the transformants were grown in LB media at 37° C. until the cells reached a density corresponding to an OD reading of 0.8 at 600 nm. Protein expression was induced by addition of 0.2 mM IPTG at 18° C. for 20 hours. The cells were harvested, pelleted and resuspended in 20 mM Tris-HCl pH 8.0, 500 mM NaCl, mM imidazole, with 5 mM β-ME. […]

[2] = tested on: mature miR-21 in HeLa cells; assay: qRT-PCR of mature miR-21 in HeLa cells; type: cell-based; details: for decline in levels of mature miR-21: days 4 and 5 of incubation, normalized to no compound; for reduction of all newly synthesized miR-21: worked out from the 20% decrease and miR-21 lifetime of approximately 5 days
Procedure: FIGS. 12A and 12B compare levels of mature miR-21 in HeLa cells, as measured by standard qRT-PCR after 5 days of incubation in the presence of palbociclib and compounds −0045 (sm1), −0050 (sm3) and −0052 (sm5) (FIG. 12A); and levels of mature miR-21 in HeLa cells were measured by qRT-PCR after 4 days of incubation in the presence of palbociclib (a control) and compounds −0045 (sm1), −0050 (sm3) and −0052 (sm5) (FIG. 12B), normalized to miR-21 levels in the absence of any compound. […] The two panels represent independent duplicates of the same experiment.
HeLa cells have relatively high levels of miR-21, and this cell line was used to evaluate whether addition of the molecules would decrease levels of mature miR-21, as expected for inhibition of miR-21 processing. […] In contrast, compounds −0045, −50 and −52, induce an approximately 20% percent decline in levels of mature miR-21 (FIGS. 12A and 12B; the comparison of FIG. 12A and FIG. 12B provides an indication in the uncertainty of the data). miR-21 is very long lived, with a lifetime of approximately 5 days. […] Similar results were obtained at higher numbers of cells/plate (200 k vs at the start of the experiment), but the experiment could not be extended beyond 2 days because of the very high cell density reached. The observed trends were nonetheless in agreement with the experiments conducted at lower cell density.

SMILES | inhibition of Dicer processing [1] | decline in levels of mature miR-21 [2] | reduction of all newly synthesized miR-21 [2] | pre-miR-21 processing by DICER/TRBP ([1]; 2 μM compound vs no compound, initial rates)
O=c1[nH]c(Nc2ccc(N3CCNCC3)cn2)nc2cnccc12 [Compound 30] | specifically inhibit Dicer processing | approximately 20% | about 60% | 
O=c1[nH]c(Nc2ccc(N3CCNCC3)cn2)nc2cccnc12 [Compound 25] | specifically inhibit Dicer processing | approximately 20% | about 60% | processing activity is visibly reduced; also recorded: visibly reduced pre-miR-21 processing
